Laboratory results published in patent US12077503B2, “Substituted cyclic amides and their use as herbicides” (FMC CORPORATION, priority 2015, dated 2024).
Where two headings read alike, the source gives them in different places.

Assays:
Type in all cases: in vivo
Kochia (Kochia scoparia) = assay: Test A preemergence; conditions: Bassia scoparia, pre-emergence, 240 h; for pest or weed control at 125 g/ha: 125 g ai/ha; for pest or weed control at 500 g/ha: 500 g ai/ha
Summary of the method: (§1)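 Seeds sprayed preemergence with a directed soil spray, or plants at 2 to 10 cm height and one- to two-leaf stage sprayed postemergence, with test chemicals in a non-phytotoxic solvent mixture containing surfactant, in loam soil–sand blend. Injury rated visually against untreated controls after about 10 d in greenhouse, 0 (no effect) to 100 (complete control).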

[1] = system: pigweed (Amaranthus retroflexus); assay: Test A preemergence; conditions: Amaranthus retroflexus, pre-emergence, 240 h; for pest or weed control at 125 g/ha: 125 g ai/ha; for pest or weed control at 500 g/ha: 500 g ai/ha
[2] = system: ryegrass, Italian (Italian ryegrass, Lolium multiflorum); assay: Test A preemergence; conditions: Lolium multiflorum, pre-emergence, 240 h; for pest or weed control at 125 g/ha: 125 g ai/ha; for pest or weed control at 500 g/ha: 500 g ai/ha
Summary of the method: as §1

[3] = system: barnyardgrass (Echinochloa crus-galli); assay: Test A preemergence; conditions: Echinochloa crus-galli, pre-emergence, 240 h; for pest or weed control at 125 g/ha: 125 g ai/ha; for pest or weed control at 500 g/ha: 500 g ai/ha
Summary of the method: as §1

[4] = system: ragweed (common ragweed, Ambrosia elatior); assay: Test A preemergence; conditions: Ambrosia artemisiifolia, pre-emergence, 240 h; for pest or weed control at 125 g/ha: 125 g ai/ha; for pest or weed control at 500 g/ha: 500 g ai/ha
Summary of the method: as §1

corn (Zea mays) = assay: Test A postemergence; conditions: Zea mays, post-emergence, 240 h, Postemergence; for plant injury at 125 g/ha: 125 g ai/ha, visual rating about 10 d after treatment, read-out: Corn plant response rating (0 to 100 scale); for Corn plant response rating (crop injury, 0 = no effect, 100 = complete kill) at 500 g/ha: 500 g ai/ha, visual injury, 0 to 100 scale (0 no effect, 100 complete control), approx. 10 d
Summary of the method: as §1

[5] = system: giant foxtail (Setaria faberii); assay: Test A postemergence; conditions: Setaria faberi, post-emergence, 240 h, Postemergence; for pest or weed control at 125 g/ha: 125 g ai/ha, visual rating about 10 d after treatment, read-out: Foxtail, Giant plant response rating (0 to 100 scale); for pest or weed control at 500 g/ha: 500 g ai/ha, visual injury, 0 to 100 scale (0 no effect, 100 complete control), approx. 10 d, read-out: Plant response rating, Foxtail, Giant
Summary of the method: as §1

[6] = system: pigweed (Amaranthus retroflexus); assay: Test A postemergence; conditions: Amaranthus retroflexus, post-emergence, 240 h, Postemergence; for pest or weed control at 125 g/ha: 125 g ai/ha, visual rating about 10 d after treatment, read-out: Pigweed plant response rating (0 to 100 scale); for pest or weed control at 500 g/ha: 500 g ai/ha, visual injury, 0 to 100 scale (0 no effect, 100 complete control), approx. 10 d, read-out: Plant response rating, Pigweed
Summary of the method: as §1

[7] = system: ryegrass, Italian (Italian ryegrass, Lolium multiflorum); assay: Test A postemergence; conditions: Lolium multiflorum, post-emergence, 240 h, Postemergence; for pest or weed control at 125 g/ha: 125 g ai/ha, visual rating about 10 d after treatment, read-out: Ryegrass, Italian plant response rating (0 to 100 scale); for pest or weed control at 500 g/ha: 500 g ai/ha, visual injury, 0 to 100 scale (0 no effect, 100 complete control), approx. 10 d, read-out: Plant response rating, Ryegrass, Italian
Summary of the method: as §1

[8] = system: blackgrass (Alopecurus myosuroides); assay: Test A postemergence; conditions: Alopecurus myosuroides, post-emergence, 240 h, Postemergence; for pest or weed control at 125 g/ha: 125 g ai/ha, visual rating about 10 d after treatment, read-out: Blackgrass plant response rating (0 to 100 scale); for pest or weed control at 500 g/ha: 500 g ai/ha, visual injury, 0 to 100 scale (0 no effect, 100 complete control), approx. 10 d, read-out: Plant response rating, Blackgrass
Summary of the method: as §1

[9] = system: wheat (Triticum aestivum); assay: Test A postemergence; conditions: Triticum aestivum, post-emergence, 240 h, Postemergence; for plant injury at 125 g/ha: 125 g ai/ha, visual rating about 10 d after treatment, read-out: Wheat plant response rating (0 to 100 scale); for plant injury at 500 g/ha: 500 g ai/ha, visual injury, 0 to 100 scale (0 no effect, 100 complete control), approx. 10 d, read-out: Plant response rating, Wheat
Summary of the method: as §1

[10] = system: Galium (catchweed bedstraw, Galium aparine); assay: Test A postemergence; conditions: Galium, post-emergence, 240 h, Postemergence; for pest or weed control at 125 g/ha: 125 g ai/ha, visual rating about 10 d after treatment, read-out: Galium plant response rating (0 to 100 scale); for pest or weed control at 500 g/ha: 500 g ai/ha, visual injury, 0 to 100 scale (0 no effect, 100 complete control), approx. 10 d, read-out: Plant response rating, Galium
Summary of the method: as §1

[11] = system: barnyardgrass (Echinochloa crus-galli); assay: Test A postemergence; conditions: Echinochloa crus-galli, post-emergence, 240 h, Postemergence; for pest or weed control at 125 g/ha: 125 g ai/ha, visual rating about 10 d after treatment, read-out: Barnyardgrass plant response rating (0 to 100 scale, 0 no effect, 100 complete control); for pest or weed control at 500 g/ha: 500 g ai/ha, visual injury, 0 to 100 scale (0 no effect, 100 complete control), approx. 10 d, read-out: Plant response rating, Barnyardgrass
Summary of the method: as §1

[12] = system: ragweed (common ragweed, Ambrosia elatior); assay: Test A postemergence; conditions: Ambrosia artemisiifolia, post-emergence, 240 h, Postemergence; for pest or weed control at 125 g/ha: 125 g ai/ha, visual rating about 10 d after treatment, read-out: Ragweed plant response rating (0 to 100 scale); for pest or weed control at 500 g/ha: 500 g ai/ha, visual injury, 0 to 100 scale (0 no effect, 100 complete control), approx. 10 d, read-out: Plant response rating, Ragweed
Summary of the method: as §1

CN1CC(c2cccc(OCC=C(Cl)Cl)c2)C(C(=O)Nc2cccc(F)c2F)C1=O (centres unmarked) [Compound 1303]
pest or weed control at 125 g/ha (Kochia (Kochia scoparia); preemergence, visual injury rating, 0 to 100 scale where 0 is no effect and 100 is complete control, approximately 10 d, read-out: Kochia plant response rating): 0%
pest or weed control at 500 g/ha (Kochia (Kochia scoparia); preemergence, 0 to 100 scale where 0 is no effect and 100 is complete control, read-out: Kochia plant response rating): 0%
pest or weed control at 125 g/ha ([1]; preemergence, visual injury rating, 0 to 100 scale where 0 is no effect and 100 is complete control, approximately 10 d, read-out: Pigweed plant response rating): 0%
pest or weed control at 500 g/ha ([1]; preemergence, 0 to 100 scale where 0 is no effect and 100 is complete control, read-out: Pigweed plant response rating): 30%
pest or weed control at 125 g/ha ([2]; preemergence, visual injury rating, 0 to 100 scale where 0 is no effect and 100 is complete control, approximately 10 d, read-out: Ryegrass, Italian plant response rating): 0%
pest or weed control at 500 g/ha ([2]; preemergence, 0 to 100 scale where 0 is no effect and 100 is complete control, read-out: Ryegrass, Italian plant response rating): 0%
pest or weed control at 125 g/ha ([3]; preemergence, visual injury rating, 0 to 100 scale where 0 is no effect and 100 is complete control, approximately 10 d, read-out: Barnyardgrass plant response rating): 0%
pest or weed control at 500 g/ha ([3]; preemergence, 0 to 100 scale where 0 is no effect and 100 is complete control, read-out: Barnyardgrass plant response rating): 30%
pest or weed control at 125 g/ha ([4]; preemergence, visual injury rating, 0 to 100 scale where 0 is no effect and 100 is complete control, approximately 10 d, read-out: Ragweed plant response rating): 0%
pest or weed control at 500 g/ha ([4]; preemergence, 0 to 100 scale where 0 is no effect and 100 is complete control, read-out: Ragweed plant response rating): 0%
plant injury at 125 g/ha (corn (Zea mays)): 0%
Corn plant response rating (crop injury, 0 = no effect, 100 = complete kill) at 500 g/ha (corn (Zea mays)): 0%
pest or weed control at 125 g/ha [5]: 40%
pest or weed control at 500 g/ha [5]: 60%
pest or weed control at 125 g/ha [6]: 0%
pest or weed control at 500 g/ha [6]: 0%
pest or weed control at 125 g/ha [7]: 0%
pest or weed control at 500 g/ha [7]: 0%
pest or weed control at 125 g/ha [8]: 0%
pest or weed control at 500 g/ha [8]: 0%
plant injury at 125 g/ha [9]: 0%
plant injury at 500 g/ha [9]: 0%
pest or weed control at 125 g/ha [10]: 0%
pest or weed control at 500 g/ha [10]: 0%
pest or weed control at 125 g/ha [11]: 0%
pest or weed control at 500 g/ha [11]: 30%
pest or weed control at 125 g/ha [12]: 0%
pest or weed control at 500 g/ha [12]: 0%

Cc1ccc([C@H]2CN(C)C(=O)[C@@H]2C(=O)Nc2ccc(F)c(F)c2F)cc1 [Compound 1378]
pest or weed control at 500 g/ha (Kochia (Kochia scoparia); preemergence, 0 to 100 scale (0 no effect, 100 complete control), read-out: Plant response rating, Kochia): 90%
pest or weed control at 125 g/ha (Kochia (Kochia scoparia); Preemergence, 0 to 100 scale (0 no effect, 100 complete control), read-out: Plant response rating, Kochia): 80%
pest or weed control at 500 g/ha ([1]; preemergence, 0 to 100 scale (0 no effect, 100 complete control), read-out: Plant response rating, Pigweed): 70%
pest or weed control at 125 g/ha ([1]; Preemergence, 0 to 100 scale (0 no effect, 100 complete control), read-out: Plant response rating, Pigweed): 70%
pest or weed control at 500 g/ha ([2]; preemergence, 0 to 100 scale (0 no effect, 100 complete control), read-out: Plant response rating, Ryegrass, Italian): 90%
pest or weed control at 125 g/ha ([2]; Preemergence, 0 to 100 scale (0 no effect, 100 complete control), read-out: Plant response rating, Ryegrass, Italian): 80%
pest or weed control at 500 g/ha ([3]; preemergence, 0 to 100 scale (0 no effect, 100 complete control), read-out: Plant response rating, Barnyardgrass): 90%
pest or weed control at 125 g/ha ([3]; Preemergence, 0 to 100 scale (0 no effect, 100 complete control), read-out: Plant response rating, Barnyardgrass): 90%
pest or weed control at 500 g/ha ([4]; preemergence, 0 to 100 scale (0 no effect, 100 complete control), read-out: Plant response rating, Ragweed): 90%
pest or weed control at 125 g/ha ([4]; Preemergence, 0 to 100 scale (0 no effect, 100 complete control), read-out: Plant response rating, Ragweed): 50%
plant injury at 125 g/ha (corn (Zea mays)): 80%
Corn plant response rating (crop injury, 0 = no effect, 100 = complete kill) at 500 g/ha (corn (Zea mays)): 80%
pest or weed control at 125 g/ha [5]: 80%
pest or weed control at 500 g/ha [5]: 90%
pest or weed control at 125 g/ha [6]: 30%
pest or weed control at 500 g/ha [6]: 70%
pest or weed control at 125 g/ha [7]: 40%
pest or weed control at 500 g/ha [7]: 60%
pest or weed control at 125 g/ha [8]: 30%
pest or weed control at 500 g/ha [8]: 40%
plant injury at 125 g/ha [9]: 60%
plant injury at 500 g/ha [9]: 70%
pest or weed control at 125 g/ha [10]: 60%
pest or weed control at 500 g/ha [10]: 70%
pest or weed control at 125 g/ha [11]: 80%
pest or weed control at 500 g/ha [11]: 80%
pest or weed control at 125 g/ha [12]: 40%
pest or weed control at 500 g/ha [12]: 70%
